These are literature values, as cited in patent US12029808B2, “Kit and method for dyeing keratinous material by means of aminosilicone and a chromophoric compound” (Henkel AG & Co. KGaA, priority 2019, dated 2024).

For the series the following is noted: 25° C.
On to `Nc1cc(S(=O)(=O)[O-])cc2cc(S(=O)(=O)[O-])c(N=Nc3ccccc3)c(O)c12.[Na+].[Na+]` [Acid Red 33, diantrium salt of 5-amino-4-hydroxy-3-(phenylazo)-naphthalene-2,7-disulphonate], for which the solubility in water was 2.5 mg/mL. As to `CCN(Cc1cccc(S(=O)(=O)[O-])c1)c1ccc(C(=C2C=CC(=[N+](CC)Cc3cccc(S(=O)(=O)[O-])c3)C=C2)c2ccccc2S(=O)(=O)[O-])cc1.[Na+].[Na+]` [Acid Blue 9], the solubility in water result is “more than 20 wt. %”.

For the molecule `O=C([O-])C1=NN(c2ccc(S(=O)(=O)[O-])cc2)C(=O)C1N=Nc1ccc(S(=O)(=O)[O-])cc1.[Na+].[Na+].[Na+]` (stereo not drawn) [Acid Yellow 23, trisodium salt of 4,5-dihydro-5-oxo-1-(4-sulfophenyl)-4-((4-sulfophenyl)azo)-1H-pyrazole-3-carboxylic acid], the “solubility in water (in words)” value was “highly soluble in water”. As for “mixture of the sodium salts of mono- and sisulfonic acids of 2-(2-quinolyl)-1H-indene-1,3(2H)-dione [Acid Yellow 3]”, the solubility in water was 20 mg/mL. `O=S(=O)([O-])c1ccc(N=Nc2c(O)ccc3ccccc23)cc1.[Na+]` [Acid Orange 7, sodium salt of 4-[(2-hydroxy-1-naphthyl)azo]benzene sulphonate]: the solubility in water result is recorded as “more than 7 g/L”. `O=C([O-])c1c(Cl)c(Cl)c(Cl)c(Cl)c1-c1c2c(Br)cc(=O)c(Br)c-2oc2c(Br)c(O)cc(Br)c12.O=C([O-])c1c(Cl)c(Cl)c(Cl)c(Cl)c1-c1c2c(Br)cc(=O)c(Br)c-2oc2c(Br)c(O)cc(Br)c12.[Na+].[Na+]` [Acid Red 92, disodium salt of 3,4,5,6-tetrachloro-2-(1,4,5,8-tetrabromo-6-hydroxy-3-oxoxanthen-9-yl)benzoic acid]: the solubility in water result is on record as “greater than 10 g/L”.
